Assay results taken from patent publication US20240092799A1, “MNK INHIBITORS” (Hepagene Therapeutics (HK) Limited, priority 2020, published 2024).

Assays:
[1] = molecular target: MNK2 (Homo sapiens (Human), UniProt Q9HBH9); experiment: MNK Biochemical Enzymatic Assay (ADP-Glo), MNK2 binding assay
Outline: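 Human MNK1 or MNK2 was preincubated with a 10-point, 1:3 serial dilution of compound for 15 min at 25 °C. Substrate was then added and the reaction ran 60 min at 25 °C. ADP formed was read by ADP-Glo luminescence, and IC50 came from non-linear regression.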

[2] = system: TMD-8 cell p-IF4E; experiment: p-eIF4E Signaling Cellular Assay (CisBio HTRF) in TMD-8 cells; type: cell-based; conditions: Homo sapiens, TMD8, 40 min, 40 min treatment
Experimental: p-eIF4E Signaling Cellular Assay. Phosphorylated eIF4E is assayed using the CisBio p-Eif4E HTRF assay kit. Reagents and equipment used in the assay are listed below, followed by the protocol.
Cell medium: RPMI 1640+10% FBS+1*PS, TMD-8 were cultured as recommended and assayed in exponential growth phase. • a) Plate 30 μL of cells in 384 white assay plate in appropriate medium and proper cell density (20 k/well) based on Optimization at 37° C. under 5% CO2 atmosphere • b) Dispense 90 nL of compounds diluted in DMSO and treat for 40 min at 37° C. under 5% CO2 atmosphere • c) Remove cell supernatant by flicking the plate • d) Add 16 μL of supplemented lysis buffer (1×) for 30 minutes at RT under shaking • e) Add 4 μL of premixed antibody solutions prepared in the detection buffer. Cover the plate with a plate sealer. Incubate 0/N at RT • f) Read the fluorescence emission at 665 nm and 620 nm on Envision • g) Data analysis • (1) Ratio […] signal is calculated for each well • (2) % Inhibition is calculated as follow:
% inhibition=100−(Signalcmpd-SignalAve_PC)/(SignalAve_VC-SignalAve_PC)×100. • (3) Calculate IC50 and Plot effect-dose curve of cmpds:
Calculate IC50 by fitting % Inhibition values and log of compound concentrations to nonlinear regression (dose response−variable slope) with Graphpad 8.0.
Y=Bottom+(Top−Bottom)/(1+10^((Log IC50−X)*Hill Slope)) • X: log of Inhibitor concentration; Y: % Inhibition.

Chain of MNK2 (Q9HBH9 whole entry): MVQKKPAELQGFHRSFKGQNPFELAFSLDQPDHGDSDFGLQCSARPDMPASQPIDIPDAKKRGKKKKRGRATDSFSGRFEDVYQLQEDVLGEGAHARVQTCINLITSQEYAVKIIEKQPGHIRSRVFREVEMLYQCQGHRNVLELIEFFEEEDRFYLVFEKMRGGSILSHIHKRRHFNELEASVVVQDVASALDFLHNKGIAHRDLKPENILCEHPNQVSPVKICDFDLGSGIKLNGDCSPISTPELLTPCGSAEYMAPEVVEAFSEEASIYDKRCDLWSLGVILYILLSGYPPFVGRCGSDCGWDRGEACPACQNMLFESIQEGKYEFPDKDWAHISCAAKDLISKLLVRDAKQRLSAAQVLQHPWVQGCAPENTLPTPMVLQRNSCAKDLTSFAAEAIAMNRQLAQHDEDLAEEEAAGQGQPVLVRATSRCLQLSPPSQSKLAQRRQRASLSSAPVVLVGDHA

Row | IC50 [1] [nM] | IC50 [2] [nM] | Structure (SMILES)
1 | 0.1 to 10 | 100 to 1000 | O=C1NC2(CCCCC2)c2cc(Nc3ncnc4c3CCN4)sc21 [Compound XXXI, 2′-((6,7-dihydro-5H-pyrrolo[2,3-d]pyrimidin-4-yl)amino)spiro[cyclohexane-1,4′-thieno[2,3-c]pyrrol]-6′(5′H)-one]
2 | 0.1 to 10 | 0.1 to 10 | Cc1cc(Nc2cc(Nc3ccc(N4CCN(C)CC4)cn3)ncn2)[n+]([O-])c2c1C(=O)NC21CCCCC1 [Compound XXIX-AO, 4′-methyl-2′-[(6-{[5-(4-methylpiperazin-1-yl)pyridin-2-yl]amino}pyrimidin-4-yl)amino]-5′-oxo-5′,6′-dihydrospiro[cyclohexane-1,7′-pyrrolo[3,4-b]pyridin]-1′-ium-1′-olate]
3 | 0.1 to 10 | 0.1 to 10 | O=C1NC2(CCCCC2)c2nc(Nc3ncnc4[nH]ccc34)sc21 [Compound XXVIII-A, 2′-((7H-pyrrolo[2,3-d]pyrimidin-4-yl)amino)spiro[cyclohexane-1,4′-pyrrolo[3,4-d]thiazol]-6′(5′H)-one]
4 | 0.1 to 10 | 10 to 100 | CC(=O)N(C)c1ccnc(Nc2cc(Nc3nc4c(s3)C(=O)NC43CCCCC3)ncn2)c1 [Compound XXVIII-P, N-methyl-N-(2-((6-((6′-oxo-5′,6′-dihydrospiro[cyclohexane-1,4′-pyrrolo[3,4-d]thiazol]-2′-yl)amino)pyrimidin-4-yl)amino)pyridin-4-yl)acetamide]
5 | 10 to 100 | – | O=C1NC2(CCCCC2)c2cc(Nc3cc(N[C@@H]4CCOC4)ncn3)sc21 [Compound XXIV-M, (R)-2′-((6-((tetrahydrofuran-3-yl)amino)pyrimidin-4-yl)amino)spiro[cyclohexane-1,4′-thieno[2,3-c]pyrrol]-6′(5′H)-one]
6 | 0.1 to 10 | – | Cc1cc(Nc2ncnc3[nH]ccc23)[n+]([O-])c2c1C(=O)NC21CCCCC1 [Compound XXIX-F, 2′-((7H-pyrrolo[2,3-d]pyrimidin-4-yl)amino)-4′-methyl-5′-oxo-5′,6′-dihydrospiro[cyclohexane-1,7′-pyrrolo[3,4-b]pyridine] 1′-oxide]
7 | 10 to 100 | – | O=C1NC2(CCCCC2)c2nc(Nc3ccnc(Nc4ccccn4)c3)sc21 [Compound XXVIII-J, 2′-((2-(pyridin-2-ylamino)pyridin-4-yl)amino)spiro[cyclohexane-1,4′-pyrrolo[3,4-d]thiazol]-6′(5′H)-one]
8 | 10 to 100 | – | O=C1NC2(CCCCC2)c2nc(Nc3cc(N[C@H]4CCCOC4)ncn3)sc21 [Compound XXVIII-D, (S)-2′-((6-((tetrahydro-2H-pyran-3-yl)amino)pyrimidin-4-yl)amino)spiro[cyclohexane-1,4′-pyrrolo[3,4-d]thiazol]-6′(5′H)-one]
9 | 10 to 100 | – | Cc1cc(Nc2cc(NC3CNC3)ncn2)[n+]([O-])c2c1C(=O)NC21CCCCC1 [Compound XXIX-Q, 2′-((6-(azetidin-3-ylamino)pyrimidin-4-yl)amino)-4′-methyl-5′-oxo-5′,6′-dihydrospiro[cyclohexane-1,7′-pyrrolo[3,4-b]pyridine] 1′-oxide]
10 | 10 to 100 | – | Cc1cc(Nc2cc(N[C@H]3CCNC3)ncn2)[n+]([O-])c2c1C(=O)NC21CCCCC1 [Compound XXIX-S, (S)-4′-methyl-5′-oxo-2′-((6-(pyrrolidin-3-ylamino)pyrimidin-4-yl)amino)-5′,6′-dihydrospiro[cyclohexane-1,7′-pyrrolo[3,4-b]pyridine] 1′-oxide]
11 | 10 to 100 | – | O=C1NC2(CCCCC2)c2nc(Nc3cc(N[C@H]4C[C@H](O)C4)ncn3)sc21 [Compound XXVIII-N, Trans-2′-((6-(((1r,3r)-3-hydroxycyclobutyl)amino)pyrimidin-4-yl)amino)spiro[cyclohexane-1,4′-pyrrolo[3,4-d]thiazol]-6′(5′H)-one]

The next lines start with the molecule.

Row | Structure (SMILES) | IC50 [1] [nM] | IC50 [2] [nM]
12 | O=C1NC2(CCCCC2)c2cc(Nc3cc(NCC4CCCC4)ncn3)sc21 [Compound XXIV-H, 2′-((6-((cyclopentylmethyl)amino)pyrimidin-4-yl)amino)spiro[cyclohexane-1,4′-thieno[2,3-c]pyrrol]-6′(5′H)-one] | 10 to 100 | 10 to 100
13 | O=C1NC2(CCCCC2)c2cc(Nc3cc(Nc4cc[nH]n4)ncn3)sc21 [Compound XXIII-U, 2′-((6-((1H-pyrazol-3-yl)amino)pyrimidin-4-yl)amino)spiro[cyclohexane-1,4′-thieno[2,3-c]pyrrol]-6′(5′H)-one] | 0.1 to 10 | 10 to 100
14 | O=C1NC2(CCCCC2)c2cc(Nc3cc(NC4CCOC4)ncn3)sc21 (stereo not drawn) [Compound XXIII-Y, 2′-((6-((tetrahydrofuran-3-yl)amino)pyrimidin-4-yl)amino)spiro[cyclohexane-1,4′-thieno[2,3-c]pyrrol]-6′(5′H)-one] | 0.1 to 10 | 10 to 100
15 | Cc1c(NC(=O)C2CC2)ncnc1Nc1cc2c(s1)C(=O)NC21CCCCC1 [Compound XX-C, N-(5-Methyl-6-((6′-oxo-5′,6′-dihydrospiro[cyclohexane-1,4′-thieno[2,3-c]pyrrol]-2′-yl)amino)pyrimidin-4-yl)cyclopropanecarboxamide] | 100 to 1000 | –
16 | CSc1ncc2c(-c3cc4c(s3)C(=O)NC43CCCCC3)n[nH]c2n1 [Compound XIX, 2′-(6-(Methylthio)-1H-pyrazolo[3,4-d]pyrimidin-3-yl)spiro[cyclohexane-1,4′-thieno[2,3-c]pyrrol]-6′(5′H)-one] | 100 to 1000 | –
17 | O=C1NC2(CCCCC2)c2cc(Nc3ccncn3)sc21 [Compound X-A, 2′-(pyrimidin-4-ylamino)spiro[cyclohexane-1,4′-thieno[2,3-c]pyrrol]-6′(5′H)-one] | 10 to 100 | –
18 | Cc1cc(Nc2cc3c(s2)C(=O)NC32CCCCC2)ncn1 [Compound XXIII-I, 2′-((6-Methylpyrimidin-4-yl)amino)spiro[cyclohexane-1,4′-thieno[2,3-c]pyrrol]-6′(5′H)-one] | 100 to 1000 | –
19 | Nc1cc(Nc2cc3n(n2)C2(CCCCC2)NC3=O)ncn1 [Compound XI, 2′-((6-Aminopyrimidin-4-yl)amino)spiro[cyclohexane-1,6′-imidazo[1,5-b]pyrazol]-4′(5′H)-one] | > 1000 | –
20 | Cn1cccc(Nc2cc(Nc3cc4c(s3)C(=O)NC43CCCCC3)ncn2)c1=O [Compound XXIV-L, 2′-((6-((1-methyl-2-oxo-1,2-dihydropyridin-3-yl)amino)pyrimidin-4-yl)amino)spiro[cyclohexane-1,4′-thieno[2,3-c]pyrrol]-6′(5′H)-one] | 100 to 1000 | –
21 | Cc1cccnc1Nc1cc(Nc2cc3c(s2)C(=O)NC32CCCCC2)ncn1 [Compound XXIII-S, 2′-((6-((3-methylpyridin-2-yl)amino)pyrimidin-4-yl)amino)spiro [cyclohexane-1,4′-thieno[2,3-c]pyrrol]-6′(5′H)-one] | 100 to 1000 | –
22 | NC1CCN(c2cc(Nc3cc4c(s3)C(=O)NC43CCCCC3)ncn2)C1 (stereo not drawn) [Compound XXIII-D, 2′-((6-(3-Aminopyrrolidin-1-yl)pyrimidin-4-yl)amino)spiro[cyclohexane-1,4′-thieno[2,3-c]pyrrol]-6′(5′H)-one] | > 1000 | –
23 | O=C1NC2(CCCCC2)c2cc(Nc3cc(NC(=O)C4CC4)ncn3)sc21 [Compound XX-A, N-(6-((6′-Oxo-5′,6′-dihydrospiro[cyclohexane-1,4′-thieno[2,3-c]pyrrol]-2′-yl)amino)pyrimidin-4-yl)cyclopropanecarboxamide] | 10 to 100 | –
